Experimental data: publication PMC6923384, “Insights into the κ/ι-carrageenan metabolism pathway of some marine Pseudoalteromonas species” (Communications Biology, 2019)
One block for each molecule: values may come before it.

Experiments:
GH167 = biological target: T1, GH167 (Pseudoalteromonas fuliginea, UniProt A0ABQ6RII1); assay: thin layer chromatography of products; type: biochemical; settings: hydrolysis of β-1,4-linkage to κ-NC2 and likely β-NC2
T1 construct: gene EU509_08810; residues 21-808, signal peptide removed, pET28a His-tag, E. coli BL21(DE3) Star
T1 sequence (A0ABQ6RII1 entry or part of it): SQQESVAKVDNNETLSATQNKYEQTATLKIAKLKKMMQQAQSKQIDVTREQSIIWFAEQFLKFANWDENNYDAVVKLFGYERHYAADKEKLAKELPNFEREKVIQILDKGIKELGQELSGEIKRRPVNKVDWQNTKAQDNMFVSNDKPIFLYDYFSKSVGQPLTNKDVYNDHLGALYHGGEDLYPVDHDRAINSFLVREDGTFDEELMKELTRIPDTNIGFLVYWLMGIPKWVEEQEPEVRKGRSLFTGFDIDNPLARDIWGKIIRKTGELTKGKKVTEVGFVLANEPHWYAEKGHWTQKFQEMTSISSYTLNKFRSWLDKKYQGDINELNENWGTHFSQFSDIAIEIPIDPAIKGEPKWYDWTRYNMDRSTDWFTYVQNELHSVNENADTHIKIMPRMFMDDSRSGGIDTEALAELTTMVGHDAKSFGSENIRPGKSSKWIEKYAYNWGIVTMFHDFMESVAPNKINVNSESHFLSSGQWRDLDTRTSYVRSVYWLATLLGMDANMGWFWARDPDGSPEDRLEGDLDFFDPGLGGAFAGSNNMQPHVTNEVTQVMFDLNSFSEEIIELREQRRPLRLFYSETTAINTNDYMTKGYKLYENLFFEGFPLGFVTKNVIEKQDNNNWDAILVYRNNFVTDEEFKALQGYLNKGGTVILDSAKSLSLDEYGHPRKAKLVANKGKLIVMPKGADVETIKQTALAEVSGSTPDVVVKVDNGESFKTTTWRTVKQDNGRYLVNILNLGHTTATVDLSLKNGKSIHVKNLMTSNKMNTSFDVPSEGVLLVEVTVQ

BovGH167 = biological target: T2, BovGH167 (Bacteroides ovatus, UniProt A0ABF7PI57); assay: thin layer chromatography of products; type: biochemical; settings: hydrolysis of β-1,4-linkage to κ-NC2 and likely β-NC2 activity as GH167
T2 construct: gene HMPREF1069_02044; residues 26-775, synthetic codon-optimised gene, pET28a His-tag, E. coli BL21(DE3) Star
T2 sequence (A0ABF7PI57 26-775): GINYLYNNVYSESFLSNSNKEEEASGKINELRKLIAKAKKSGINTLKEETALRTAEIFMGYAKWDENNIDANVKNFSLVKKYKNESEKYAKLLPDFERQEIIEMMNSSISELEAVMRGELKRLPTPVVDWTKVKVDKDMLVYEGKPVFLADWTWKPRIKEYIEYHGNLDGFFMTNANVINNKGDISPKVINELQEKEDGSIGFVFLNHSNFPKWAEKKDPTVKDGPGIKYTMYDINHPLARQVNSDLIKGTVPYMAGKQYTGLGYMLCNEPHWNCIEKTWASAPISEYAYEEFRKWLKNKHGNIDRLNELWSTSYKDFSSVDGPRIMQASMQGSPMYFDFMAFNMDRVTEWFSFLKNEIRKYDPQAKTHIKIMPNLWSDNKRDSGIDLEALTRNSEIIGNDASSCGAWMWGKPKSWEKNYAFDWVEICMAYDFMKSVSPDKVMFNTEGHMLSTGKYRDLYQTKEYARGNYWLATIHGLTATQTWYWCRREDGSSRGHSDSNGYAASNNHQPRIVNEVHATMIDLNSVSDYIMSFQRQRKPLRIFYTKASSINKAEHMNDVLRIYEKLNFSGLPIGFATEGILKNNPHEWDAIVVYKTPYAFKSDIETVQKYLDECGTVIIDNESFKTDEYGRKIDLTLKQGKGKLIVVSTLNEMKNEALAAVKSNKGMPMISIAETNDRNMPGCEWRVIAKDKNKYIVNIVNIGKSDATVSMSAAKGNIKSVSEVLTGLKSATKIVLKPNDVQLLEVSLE

S1_NC = biological target: T3, S1_NC (Pseudoalteromonas fuliginea, UniProt A0ABQ6RIJ3, C84S); assay: crystal structure of the complex; type: binding; settings: crystal soaking; only the non-reducing end disaccharide (ι-NC2) modelled; active site
T3 construct: gene EU509_08820; residues 34-507, signal peptide removed, pET28a N-terminal His-tag cut by thrombin for crystals, E. coli BL21(DE3) Star
T3 sequence (A0ABQ6RIJ3 entry or part of it C84S): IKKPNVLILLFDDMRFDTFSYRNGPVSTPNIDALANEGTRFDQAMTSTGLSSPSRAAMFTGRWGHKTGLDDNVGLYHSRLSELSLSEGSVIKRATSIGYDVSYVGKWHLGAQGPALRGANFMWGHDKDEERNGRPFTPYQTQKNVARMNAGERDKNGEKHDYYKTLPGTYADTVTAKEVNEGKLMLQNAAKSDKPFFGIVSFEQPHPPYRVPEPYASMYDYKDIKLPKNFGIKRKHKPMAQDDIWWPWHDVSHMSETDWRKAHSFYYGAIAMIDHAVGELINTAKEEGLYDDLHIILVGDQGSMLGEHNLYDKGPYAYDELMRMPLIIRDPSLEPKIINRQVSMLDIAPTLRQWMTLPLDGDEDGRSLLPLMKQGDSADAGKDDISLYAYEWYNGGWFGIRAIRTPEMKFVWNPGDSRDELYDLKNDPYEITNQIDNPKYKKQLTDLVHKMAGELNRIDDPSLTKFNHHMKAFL

S1_19A = biological target: T4, S1_19A (Pseudoalteromonas fuliginea, UniProt A0ABQ6RIU8); assay: product analysis, details in supplement; type: biochemical; settings: removes 4-sulfate from G4S adjacent to the non-reducing end
T4 construct: gene EU509_08825; pET28a His-tag, E. coli BL21(DE3) Star with formylglycine generating enzyme; cloning described previously
T4 sequence (A0ABQ6RIU8 entry or part of it): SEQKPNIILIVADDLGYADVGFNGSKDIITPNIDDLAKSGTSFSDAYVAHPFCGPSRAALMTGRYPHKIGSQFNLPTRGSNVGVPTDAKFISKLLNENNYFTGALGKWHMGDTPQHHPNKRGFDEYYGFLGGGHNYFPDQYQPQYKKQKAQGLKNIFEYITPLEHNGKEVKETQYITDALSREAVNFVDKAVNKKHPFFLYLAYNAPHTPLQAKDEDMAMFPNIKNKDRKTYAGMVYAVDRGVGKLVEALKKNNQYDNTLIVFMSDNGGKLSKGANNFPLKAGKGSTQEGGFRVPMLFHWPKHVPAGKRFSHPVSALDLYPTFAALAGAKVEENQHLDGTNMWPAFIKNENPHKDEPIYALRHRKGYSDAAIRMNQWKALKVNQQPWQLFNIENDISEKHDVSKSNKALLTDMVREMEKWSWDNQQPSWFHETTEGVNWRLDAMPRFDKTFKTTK

S1_19B = biological target: T5, S1_19B (Pseudoalteromonas fuliginea, UniProt A0ABQ6RIL2, C77S); assay: crystal structure of the complex; type: binding; settings: co-crystallization; inactive (non-productive) complex; C77S inferred from methods (mutants in complex with ligands)
T5 construct: gene EU509_08890; residues 28-473, signal peptide removed, pET28a N-terminal His-tag (cut by thrombin for crystals), E. coli BL21(DE3) Star with formylglycine generating enzyme; dimer
T5 sequence (A0ABQ6RIL2 entry or part of it C77S): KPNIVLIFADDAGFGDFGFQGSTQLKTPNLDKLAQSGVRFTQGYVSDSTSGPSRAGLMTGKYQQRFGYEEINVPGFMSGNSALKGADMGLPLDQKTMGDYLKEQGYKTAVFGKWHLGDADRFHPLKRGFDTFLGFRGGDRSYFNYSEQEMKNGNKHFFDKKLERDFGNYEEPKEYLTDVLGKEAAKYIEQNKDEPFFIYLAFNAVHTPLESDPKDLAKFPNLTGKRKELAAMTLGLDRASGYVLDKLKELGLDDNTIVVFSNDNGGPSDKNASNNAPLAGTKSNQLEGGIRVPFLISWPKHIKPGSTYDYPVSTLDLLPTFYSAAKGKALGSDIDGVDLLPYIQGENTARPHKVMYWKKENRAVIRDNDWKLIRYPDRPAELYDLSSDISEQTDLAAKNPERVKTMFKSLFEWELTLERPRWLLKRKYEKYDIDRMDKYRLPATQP

[1] = biological target: DauA, 3,6-anhydro-D-galactose dehydrogenase from Pseudoalteromonas fuliginea PS47 (Pseudoalteromonas fuliginea PS47); assay: crystal structure; hanging drop vapor-diffusion at 18 °C; N-terminal His-Tag cleaved with thrombin before crystallization
[2] = biological target: S1_19B, exo-G4S κ-carrageenan sulfatase from Pseudoalteromonas fuliginea PS47 (Pseudoalteromonas fuliginea PS47); assay: not stated; in solution; method told only in Supplementary Notes (section 3) and Supplementary Fig. 7b-d
[3] = biological target: S1_19B, exo-G4S κ-carrageenan sulfatase from Pseudoalteromonas fuliginea PS47 (Pseudoalteromonas fuliginea PS47); assay: crystal structure; hanging drop vapor-diffusion at 18 °C; N-terminal His-Tag cleaved with thrombin before crystallization

Molecule: O=S(=O)(O)O[C@@H]1[C@H](O[C@H]2O[C@@H]3CO[C@H]([C@H]2O)[C@H]3O[C@@H]2O[C@H](CO)[C@H](O)[C@H](O[C@H]3O[C@@H]4CO[C@@H]([C@H]4O)[C@H]3O)[C@H]2O)[C@@H](O)C(O)O[C@@H]1CO (stereo partly drawn) [β/κ-NC4, β/κ-neocarratetraose]
thin layer chromatography of products (GH167): Using TLC we found activity on hybrid β/κ-neocarratetraose (β/κ-NC4)
thin layer chromatography of products (BovGH167): has the same enzymatic activity as GH167 (Fig. 5a)

Molecule: O=S(=O)(O)O[C@@H]1[C@H](O[C@H]2O[C@@H]3CO[C@@H]([C@H]3O)[C@H]2OS(=O)(=O)O)[C@@H](O)[C@H](O[C@@H]2[C@@H]3OC[C@H]2O[C@H](O[C@H]2[C@@H](OS(=O)(=O)O)[C@@H](CO)OC(O)[C@@H]2O)[C@@H]3OS(=O)(=O)O)O[C@@H]1CO (some centres unmarked) [ι-NC4, ι-neocarratetraose]
crystal structure of the complex (S1_NC): structural analysis of the S1_NC C84S mutant in complex with ι-NC4
product analysis, details in supplement (S1_19A): can remove the 4-sulfate from the G4S residue that is adjacent to the non-reducing end
crystal structure of the complex (S1_19B): the structure of this enzyme in complex with ι-NC4 revealed the ability of the enzyme to bind

stoichiometry N [1]: 2
Molecule: DauA, 3,6-anhydro-D-galactose dehydrogenase from Pseudoalteromonas fuliginea PS47 (enzyme)

stoichiometry N [2]: 2
stoichiometry N [3]: 2
Molecule: S1_19B, exo-G4S κ-carrageenan sulfatase from Pseudoalteromonas fuliginea PS47 (enzyme)
